Source: patent US5750530A, “Pharmaceutical diketopiperazine compounds” (Xenova Limited, priority 1994, dated 1998)
Counter-ions that a name gives are not always drawn. Like-named read-outs stand apart in the source and are kept apart here.

Biological target: PAI-1 (Homo sapiens, UniProt P05121)
Assay: biochemical
Format: biochemical
Method: The present compounds have been tested in a PAI functional assay. In this assay, a compound is incubated with PAI-1 prior to addition to the tPA assay system. Inhibition of PAI-1 results in the production of plasmin from plasminogen. In turn, plasmin cleaves the chromogenic substrate S2251 (Kabi Vitrum) producing pNA (p-nitroaniline) which is detected spectrophotometrically at 405 nm (K. Nilsson et al, Fibrinolysis (1987) 1, 163-168).
The present compounds were tested in a PAI chromogenic substrate assay. In the assay (K. Nilsson, Fibrinolysis (1987) 1, 163-168) each compound was incubated with PAI-1 prior to addition to the tPA assay system. […] In turn, the plasmin cleaved the chromogenic substrate S2251 (Kabi-Vitrum) producing pNA (p-nitroaniline) which was detected spectrophotometrically at 405 nm.
The degrees of inhibition observed in the chromogenic substrate assay at various concentrations, or the IC50 values, for each compound are presented in Table 1.

[1] = PAI chromogenic substrate assay

Sequence of PAI-1 (P05121 24-402): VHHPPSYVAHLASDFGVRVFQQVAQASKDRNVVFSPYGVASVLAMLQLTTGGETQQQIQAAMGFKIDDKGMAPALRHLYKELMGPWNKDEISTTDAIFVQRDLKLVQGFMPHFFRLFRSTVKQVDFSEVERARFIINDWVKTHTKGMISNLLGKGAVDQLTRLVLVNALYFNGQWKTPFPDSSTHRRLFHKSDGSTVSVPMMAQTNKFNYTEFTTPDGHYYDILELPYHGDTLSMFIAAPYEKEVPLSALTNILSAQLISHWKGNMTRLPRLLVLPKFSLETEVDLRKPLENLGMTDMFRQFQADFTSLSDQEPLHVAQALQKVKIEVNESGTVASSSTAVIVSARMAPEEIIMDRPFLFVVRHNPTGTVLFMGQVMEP

SMILES	% Inhibition (20 μm) [%]	% Inhibition (100 μm) [%]	IC50 [1] [µM]	IC50 [µM]	% Inhibition (5 μm) [%]
CN(C)CCSc1ccc(/C=c2\[nH]c(=O)/c(=C/c3ccnc4ccccc34)[nH]c2=O)s1 [Compound 5307, (3Z,6Z)-6-(5-(2-Dimethylaminoethylthio)-2-thienyl)methylene-3-(4-quinolylmethylene)-2,5-piperazinedione]	83	88	8.5	–	–
CN(C)CCSc1ccc(/C=c2\[nH]c(=O)/c(=C/c3ccnc4ccccc34)[nH]c2=O)s1 [Compound 5307.HCl, (3Z,6Z)-6-(5-(2-Dimethylaminoethylthio)-2-thienyl)methylene-3-(4-quinolylmethylene)-2,5-piperazinedione]	–	–	18	–	–
CN(C)CCSc1ccc(/C=c2\[nH]c(=O)/c(=C/c3ccc4ccccc4n3)[nH]c2=O)s1 [Compound 5308, (3Z,6Z)-6-(5-(2-Dimethylaminoethylthio)-2-thienyl)methylene-3-(2-quinolylmethylene)-2,5-piperazinedione]	81	80	4.7	–	–
CN(C)CCSc1ccc(/C=c2\[nH]c(=O)/c(=C/c3ccc4ccccc4n3)[nH]c2=O)s1 [Compound 5308.HCl, (3Z,6Z)-6-(5-(2-Dimethylaminoethylthio)-2-thienyl)methylene-3-(2-quinolylmethylene)-2,5-piperazinedione]	93	93	4.5	–	–
CN(C)CCSc1ccc(/C=c2\[nH]c(=O)/c(=C/c3ccc4c(c3)CCO4)[nH]c2=O)s1 [Compound 5311, (3Z,6Z)-3-(2,3-dihydro-5-benzofuranyl)methylene-6-(5-(2-dimethylaminoethylthio)-2-thienyl)methylene-2,5-piperazinedione]	–	–	–	15	–
CN(C)CCSc1ccc(/C=c2\[nH]c(=O)/c(=C/c3ccc4c(c3)CCO4)[nH]c2=O)s1 [Compound 5311.HCl, (3Z,6Z)-3-(2,3-dihydro-5-benzofuranyl)methylene-6-(5-(2-dimethylaminoethylthio)-2-thienyl)methylene-2,5-piperazinedione]	–	–	20	–	–
CN(C)CCSc1ccc(/C=c2\[nH]c(=O)/c(=C/c3ccccc3Br)[nH]c2=O)s1 [Compound 5313, (3Z,6Z)-6-(2-Bromobenzylidene)-3-(5-(2-dimethylaminoethylthio)-2-thienyl)methylene-2,5-piperazinedione]	10	–	–	–	–
CN(C)CCSc1ccc(/C=c2\[nH]c(=O)/c(=C/c3ccccc3Br)[nH]c2=O)s1 [Compound 5313.HCl, (3Z,6Z)-6-(2-Bromobenzylidene)-3-(5-(2-dimethylaminoethylthio)-2-thienyl)methylene-2,5-piperazinedione]	–	–	20	–	–
COc1cccc(/C=c2\[nH]c(=O)/c(=C/c3ccc(SCCN(C)C)s3)[nH]c2=O)c1 [Compound 5314, (3Z,6Z)-3-(5-(2-Dimethylaminoethylthio)-2-thienyl)methylene-6-(3-methoxybenzylidene)-2,5-piperazinedione]	–	–	3.5	–	–
COc1cccc(/C=c2\[nH]c(=O)/c(=C/c3ccc(SCCN(C)C)s3)[nH]c2=O)c1 [Compound 5314.HCl, (3Z,6Z)-3-(5-(2-Dimethylaminoethylthio)-2-thienyl)methylene-6-(3-methoxybenzylidene)-2,5-piperazinedione]	–	–	9.5	–	–
CN(C)CCSc1ccc(/C=c2\[nH]c(=O)/c(=C/c3cccc(C(F)(F)F)c3)[nH]c2=O)s1 [Compound 5315, (3Z,6Z)-3-(5-(2-Dimethylaminoethylthio)-2-thienyl)methylene-6-(3-trifluoromethylbenzylidene)-2,5-piperazinedione]	–	–	20	–	–
CN(C)CCSc1ccc(/C=c2\[nH]c(=O)/c(=C/c3cccc(C(F)(F)F)c3)[nH]c2=O)s1 [Compound 5315.HCl, (3Z,6Z)-3-(5-(2-Dimethylaminoethylthio)-2-thienyl)methylene-6-(3-trifluoromethylbenzylidene)-2,5-piperazinedione]	10	–	–	–	–
CN(C)CCSc1ccc(/C=c2\[nH]c(=O)/c(=C/c3cccc([N+](=O)[O-])c3)[nH]c2=O)s1 [Compound 5316, (3Z,6Z)-3-(5-(2-Dimethylaminoethylthio)-2-thienyl)methylene-6-(3-nitrobenzylidene)-2,5-piperazinedione]	10	–	–	–	–
CC(C)N(CCSc1ccc(/C=c2\[nH]c(=O)/c(=C/c3ccccc3)[nH]c2=O)s1)C(C)C [Compound 5399, (3Z,6Z)-6-Benzylidene-3-(5-(2-diisopropylaminoethylthio)-2-thienyl)methylene-2,5-piperazinedione]	43	–	–	–	23
CC(C)N(CCSc1ccc(/C=c2\[nH]c(=O)/c(=C/c3ccccc3)[nH]c2=O)s1)C(C)C [Compound 5399.HCl, (3Z,6Z)-6-Benzylidene-3-(5-(2-diisopropylaminoethylthio)-2-thienyl)methylene-2,5-piperazinedione]	31	–	–	–	18
CN(C)CCSc1ccc(/C=c2\[nH]c(=O)/c(=C/c3ccccc3)[nH]c2=O)cc1[N+](=O)[O-] [Compound 5400, (3Z,6Z)-6-Benzylidene-3-(4-(2-dimethylaminoethylthio)-3-nitrobenzylidene)-2,5-piperazinedione]	60	–	4.5	–	61
CN(C)CCSc1sc(/C=c2\[nH]c(=O)/c(=C/c3ccccc3)[nH]c2=O)cc1[N+](=O)[O-] [Compound 5403, (3Z,6Z)-6-Benzylidene-3-(5-(2-dimethylaminoethylthio)-4-nitro-2-thienyl)methylene-2,5-piperazinedione]	52	–	20	–	26
CN(C)CCSc1sc(/C=c2\[nH]c(=O)/c(=C/c3ccccc3)[nH]c2=O)cc1[N+](=O)[O-] [Compound 5403.HCl, (3Z,6Z)-6-Benzylidene-3-(5-(2-dimethylaminoethylthio)-4-nitro-2-thienyl)methylene-2,5-piperazinedione]	60	–	–	–	12
CN(C)CCSc1ccc(/C=c2\[nH]c(=O)/c(=C/c3cccc([N+](=O)[O-])c3)[nH]c2=O)cc1 [Compound 5422, (3Z,6Z)-6-(4-(2-Dimethylaminoethylthio)benzylidene)-3-(3-nitrobenzylidene)-2,5-piperazinedione]	21	–	–	–	3
CN(C)CCSc1ccc(/C=c2\[nH]c(=O)/c(=C/c3cccc([N+](=O)[O-])c3)[nH]c2=O)cc1 [Compound 5422.HCl, (3Z,6Z)-6-(4-(2-Dimethylaminoethylthio)benzylidene)-3-(3-nitrobenzylidene)-2,5-piperazinedione]	28	–	–	–	5
CN(C)CCSc1ccc(/C=c2\[nH]c(=O)/c(=C/c3cccc(C(F)(F)F)c3)[nH]c2=O)cc1 [Compound 5423, (3Z,6Z)-6-(4-(2-Dimethylaminoethylthio)benzylidene)-3-(3-trifluoromethylbenzylidene)-2,5-piperazinedione]	11	–	–	–	–
CN(C)CCSc1ccc(/C=c2\[nH]c(=O)/c(=C/c3cccc(C(F)(F)F)c3)[nH]c2=O)cc1 [Compound 5423.HCl, (3Z,6Z)-6-(4-(2-Dimethylaminoethylthio)benzylidene)-3-(3-trifluoromethylbenzylidene)-2,5-piperazinedione]	35	–	20	–	2
